Results as given in patent US11377501B2, “Peptide having high affinity for PD-L1 protein and use thereof” (priority 2017, dated 2022).
“Also recorded” adds a separate entry of the source. Where no end group is shown, it is not given here.

What was measured:
[1] = target: T1, recombinant human PD-L1 protein expressed on CHO cell surface (Homo sapiens, UniProt Q9NZQ7); assay: Binding of FITC-labeled PPLC peptide to PD-L1 expressed on CHO cell surface (flow cytometry, fluorescence confocal); assay type: cell-based; settings: CHO cells transfected with human PD-L1, FITC-labeled peptide, flow cytometry and confocal
T1 construct: expressed in transfected cells; host or cells: CHO cell line
Procedure: (§1) The recombinant plasmid expressing recombinant human PD-L1 protein was transfected into CHO cell line and incubated for 36 hours. After incubation, anti-PD-L1 monoclonal antibody or PPLC peptide labeled with FITC was added and incubated at 4° C. for 30 minutes. After incubation, flow cytometry was performed (FIG. 3). After transfection of the plasmid, the cells were further cultured for 36 hours, and then the PPLC peptide labeled with FITC was added and incubated at 37° C. for 30 minutes. After incubation, fluorescence confocal detection was performed (FIG. 4).
as §1, with “added,” for “added”, “performed.” for “performed (FIG. 3).”, “performed.” for “performed (FIG. 4).”

mouse tumor = assay: Effect of PPLC peptide on tumor volume and survival in mouse tumor model; assay type: in vivo; settings: subcutaneous tumors in female Balb/c mice
Procedure: (§2) The experimental animals were divided into two groups: PBS group and PPLC group. Tumors were injected subcutaneously into 6 weeks old female Balb/c mice. Two weeks later, when the tumor size reached 100 mm^3, PPLC drug treatment was performed. The size of the mouse tumor was measured daily and the change was recorded.
as §2, with “into” for “into 6 weeks old”

PD-1/PD-L1 = PD-1/PD-L1 (Homo sapiens, UniProt Q9NZQ7); assay: Competitive binding ELISA between PPLC peptide and PD-1 to PD-L1 protein; settings: 2 μg/ml coated PD-L1, 1 μg/ml PD-1 protein
Procedure: (§3) A 96-well ELISA plate was coated with 2 μg/ml PD-L1 protein at 4° C. overnight. Different concentrations of PPLC peptide and 1 μg/ml PD-1 protein were mixed and incubated together. After incubation, rabbit anti-human PD-1 monoclonal antibody was added as primary antibody, and then HRP-conjugated goat anti-rabbit IgG monoclonal antibody was added as secondary antibody. After ABTS color development, the OD value at 410 nm was measured using a M5 microplate reader, and GraphPad Prism 6 was used for plotting and analysis.
as §3, with “1 μg/ml of PD-1 protein” for “1 μg/ml PD-1 protein”

T1 sequence (Q9NZQ7 19-290): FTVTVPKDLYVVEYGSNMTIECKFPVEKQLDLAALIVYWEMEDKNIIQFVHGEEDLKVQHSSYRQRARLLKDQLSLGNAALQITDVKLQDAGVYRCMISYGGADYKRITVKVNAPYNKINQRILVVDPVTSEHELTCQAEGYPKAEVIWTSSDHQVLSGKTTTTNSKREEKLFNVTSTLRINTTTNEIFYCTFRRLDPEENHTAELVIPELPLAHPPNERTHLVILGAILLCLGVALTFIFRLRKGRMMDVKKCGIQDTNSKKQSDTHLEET
Chain of PD-1/PD-L1 (Q9NZQ7 19-238 limits assumed): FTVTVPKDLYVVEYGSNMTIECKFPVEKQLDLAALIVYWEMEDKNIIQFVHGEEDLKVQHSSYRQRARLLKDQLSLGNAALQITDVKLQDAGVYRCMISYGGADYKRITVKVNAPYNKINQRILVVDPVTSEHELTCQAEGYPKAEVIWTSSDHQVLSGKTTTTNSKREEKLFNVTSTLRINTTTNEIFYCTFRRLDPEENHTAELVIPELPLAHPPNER

With VSVSHFQKVWVV [PPLC] the “binding to PD-L1 protein expressed on the cell surface” value [1] was “can efficiently bind to the PD-L1 protein expressed on the cell surface; also recorded: has a high affinity for PD-L1 expressed on the surface of CHO cells”, the “growth rate of mouse tumor / tumor size” value (mouse tumor; treatment from tumor size 100 mm^3, versus PBS group) was “can significantly reduce the growth rate of mouse tumor; also recorded: significantly smaller than that of the control group” and the “survival time of mice” value (mouse tumor; versus PBS group) was “prolong the survival time of mice”. The “blocking of the binding of PD-1/PD-L1” value (PD-1/PD-L1) was “can effectively block the binding of PD-1/PD-L1”.
